Laboratory results reported in US12030880B2, “Iminosulfanone compound as bromodomain protein inhibitor and pharmaceutical composition and medical use thereof” (CHIA TAI TIANQING PHARMACEUTICAL GROUP CO., LTD., priority 2018, dated 2024).

Legend:
[1] = biological target: BRD4 (BD1) (Homo sapiens (Human), UniProt O60885); test: In vitro BRD4 (BD1) enzymatic activity assay (HTRF); format: binding; settings: GST-BRD4 (BD1, 44-168 aa)
Method: In the present application, IC50 values of the compounds in inhibiting BRD4 (BD1) enzyme binding reaction were determined by homogeneous time resolved fluorescence (HTRF). A compounds was serially diluted 5-fold with 100% DMSO starting from 0.2 mM (7 concentrations in total), and then 2 μL of the compound at each concentration was added to 48 μL of a reaction buffer (20 mM HEPES pH 7.5, 150 mM NaCl, 5 mM DTT, 0.005% Tween 20, and 100 μg/mL BSA) for dilution, and mixed well. 2.5 μL of the resulting mixture was added to a 384-well plate (OptiPlate-384, purchased from PerkinElmer), then 5 μL of GST-BRD4 (BD1, 44-168 aa) (final concentration: 1 nM) was added, and the resulting mixture was centrifuged, and fully mixed. 2.5 μL of a short peptide Biotin-AHA-SGRGK(Ac)GGK(Ac)GLGK(Ac)GGAK(Ac) RHRKV (final concentration: 100 nM) was then added to initiate the reaction (total reaction volume: 10 μL). The 384-well plate was placed in an incubator at 23° C. to react for 1 hour, and then 5 μL of Eu3+ cryptate-labled anti-GST antibody (purchased from Cisbio) and 5 μL of Streptavidin-XL-665 (purchased from Cisbio) were added to terminate the reaction. After being incubated in the incubator for another 1 hour, the fluorescence values (excited at 320 nm, emitted light at 665 nm and 620 nm being detected, and the ratio of the two being the enzyme binding signal) were read on Envision (purchased from PerkinElmer). The binding strength of each compound to BRD4 (BD1) protein was determined respectively at 7 concentrations, and the data were calculated using GraphPad Prism software to obtain the IC50 value of the compound.

[2] = biological target: BRD4 (BD2) (Homo sapiens (Human), UniProt O60885); test: In vitro BRD4 (BD2) enzymatic activity assay (HTRF); format: binding; settings: GST-BRD4 (BD2, 349-460 aa)
Method: In the present application, IC50 values of the compounds in inhibiting BRD4 (BD2) enzyme binding reaction were determined by homogeneous time resolved fluorescence (HTRF). A compound was serially diluted 5-fold with 100% DMSO starting from 1 mM (7 concentrations in total), and then 2 μL of the compound at each concentration was added to 18 μL of a reaction buffer (20 mM HEPES pH 7.5, 150 mM NaCl, 5 mM DTT, 0.005% Tween 20, and 100 μg/mL BSA) for dilution. After being mixed well, 2 μL of the compound at each concentration was added to 48 μL of the above reaction buffer for dilution, and mixed well (final concentration of the compound in DMSO: 0.1%). 2.5 μL of the resulting mixture was added to a 384-well plate (OptiPlate-384, purchased from PerkinElmer), then 5 μL of GST-BRD4 (BD2, 349-460 aa) (final concentration: 2 nM) was added, and the resulting mixture was centrifuged, and fully mixed. 2.5 μL of a peptide Biotin-AHA-SGRGK(Ac)GGK(Ac)GLGK(Ac)GGAK(Ac) RHRKV (final concentration: 200 nM) was then added to initiate the reaction (total reaction volume: 10 μL). The 384-well plate was placed in an incubator at 23° C. to react for 1 hour, and then 5 μL of Eu3+ cryptate-labled anti-GST antibody (purchased from Cisbio) and 5 μL of Streptavidin-XL-665 (purchased from Cisbio) were added to terminate the reaction. After being incubated in the incubator for another 1 hour, the fluorescence values (excited at 320 nm, emitted light at 665 nm and 620 nm being detected, and the ratio of the two being the enzyme binding signal) were read on Envision (purchased from PerkinElmer). The binding strength of each compound to BRD4 (BD2) protein was determined respectively at 7 concentrations, and the data were calculated using GraphPad Prism software to obtain the IC50 value of the compound.

[3] = test system: Kasumi-1 cells; test: Cell proliferation activity assay in Kasumi-1; format: cell-based; settings: Homo sapiens, inhibiting cell proliferation, 72 hours, Cell-Titer Blue
Method: (§1) Human acute myeloblastic leukemia cell line Kasumi-1 cells were cultured in PRIM1640 medium plus 20% fetal bovine serum (FBS, purchased from Biological Industries, BI) and 1% penicillin/streptomycin double antibody (P/S, purchased from Life Technology) at 37° C. with 5% CO2. On the day before the compound test, Kasumi-1 cells were spread in a 96-well plate (purchased from Corning) at a concentration of 5000 cells/195 μL/well. After 24 hours, the compound was serially diluted 4-fold with 100% DMSO starting from 10 mM (9 concentrations in total), and then 2 μL of the compound at each concentration was added to 48 μL of PRIM1640 medium for dilution. 5 μL of the diluted compound at each concentration was added to the wells spread with the cell suspension, and the compound and cells were co-incubated in a cell incubator for 72 hours (3 days). Then the mixture was added with 35 μL of Cell-Titer Blue reagent (purchased from Promega) and incubated for another 4 hours. The fluorescence values (excited at 560 nm, detected at 590 nm) were then read on Flexstation III, and the data were calculated using GraphPad Prism software to give IC50 value of the compound in inhibiting cell proliferation.

[4] = test system: MV4-11 cells; test: Cell proliferation activity assay in MV4-11; format: cell-based; settings: Homo sapiens, inhibiting cell proliferation, 72 hours, Cell-Titer Blue
Method: as §1, with “lymphoblastic” for “myeloblastic”, “MV4-11” for “Kasumi-1”, “10%” for “20%”, “8000” for “5000”

Structure (SMILES)	IC50 [1]	IC50 [2]	IC50 [3]	IC50 [4]
Cc1cn(-c2ccc(N=S(C)(C)=O)cc2-c2cn(C)c(=O)c3[nH]ccc23)ccc1=O [Example 17, 4-{5-{[dimethyl(oxo)-λ^6-sulfanylidene]amino}-2-[3-methyl-4-oxopyridin-1(4H)-yl]phenyl}-6-methyl-1,6-dihydro-7H-pyrrolo[2,3-c]pyridin-7-one]	330 nM	4 nM	–	–
CCNC(=O)c1cc2c(-c3cc(N=S(C)(C)=O)cnc3Oc3c(C)cccc3Cl)cn(C)c(=O)c2[nH]1 [Example 21, 4-{2-(2-chloro-6-methylphenoxy)-5-{[dimethyl(oxo)-λ^6-sulfanylidene]amino}-pyridin-3-yl}-N-ethyl-6-methyl-7-oxo-6,7-dihydro-1H-pyrrolo[2,3-c]pyridine-2-carboxamide]	10.7 nM	0.13 nM	18 nM	138 nM
Cc1cc(F)cc(C)c1Oc1ccc(N=S(C)(C)=O)cc1-c1cn(C)c(=O)c2[nH]c(C(=O)NCC(F)(F)F)cc12 [Example 22, 4-{5-{[dimethyl(oxo)-λ^6-sulfanylidene]amino}-2-(4-fluoro-2,6-dimethylphenoxy)phenyl}-6-methyl-7-oxo-N-(2,2,2-trifluoroethyl)-6,7-dihydro-1H-pyrrolo[2,3-c]pyridine-2-carboxamide]	188 nM	0.88 nM	–	–
CCNC(=O)c1cc2c(-c3cc(N=S(C)(C)=O)ccc3Oc3ccc(S(C)(=O)=O)cc3)cn(C)c(=O)c2[nH]1 [Example 1, 4-{5-{[dimethyl(oxo)-λ^6-sulfanylidene]amino}-2-[4-(methylsulfonyl)phenoxy]phenyl}-N-ethyl-6-methyl-7-oxo-6,7-dihydro-1H-pyrrolo[2,3-c]pyridine-2-carboxamide]	–	–	322 nM	124 nM
Cn1cc(-c2cc(N=S(C)(C)=O)ccc2Oc2ccc(S(C)(=O)=O)cc2)c2cc[nH]c2c1=O [Example 3, 4-{5-{[dimethyl(oxo)-λ^6-sulfanylidene]amino}-2-[4-(methylsulfonyl)phenoxy]phenyl}-6-methyl-1,6-dihydro-7H-pyrrolo[2,3-c]pyridin-7-one]	7.7 nM	0.45 nM	155 nM	30.9 nM
Cc1cccc(Cl)c1Oc1ncc(N=S(C)(C)=O)cc1-c1cn(C)c(=O)c2[nH]ccc12 [Example 20, 4-{2-(2-chloro-6-methylphenoxy)-5-{[dimethyl(oxo)-λ^6-sulfanylidene]amino}-pyridin-3-yl}-6-methyl-1,6-dihydro-7H-pyrrolo[2,3-c]pyridin-7-one]	12.9 nM	0.27 nM	9.25 nM	75 nM
Cn1cc(-c2cc(N=S(C)(C)=O)ncc2Oc2ccc(F)cc2F)c2cc[nH]c2c1=O [Example 19, 4-{5-(2,4-difluorophenoxy)-2-{[dimethyl(oxo)-λ^6-sulfanylidene]amino}-pyridin-4-yl}-6-methyl-1,6-dihydro-7H-pyrrolo[2,3-c]pyridin-7-one]	7.3 nM	0.61 nM	7.37 nM	54 nM
Cn1cc(-c2cc(N=S(C)(C)=O)ccc2OCC2CCOC2)c2cc[nH]c2c1=O (stereo not shown) [Example 12, 4-{5-{[dimethyl(oxo)-λ^6-sulfanylidene]amino}-2-[(tetrahydrofuran-3-yl)methoxy]phenyl}-6-methyl-1,6-dihydro-7H-pyrrolo[2,3-c]pyridin-7-one]	4.1 nM	1.1 nM	20.7 nM	27.8 nM
Cc1cccc(Cl)c1Oc1ccc(N=S(C)(C)=O)cc1-c1cn(C)c(=O)c2[nH]ccc12 [Example 6, 4-{2-(2-chloro-6-methylphenoxy)-5-[dimethyl(oxo)-λ^6-sulfanylidene]aminophenyl}-6-methyl-1,6-dihydro-7H-pyrrolo[2,3-c]pyridin-7-one]	26.4 nM	0.93 nM	13.6 nM	90.4 nM
Cn1cc(-c2cc(N=S(C)(C)=O)ccc2Oc2ccc(C#N)cc2F)c2cc[nH]c2c1=O [Example 2, 4-{4-{[dimethyl(oxo)-λ^6-sulfanylidene]amino}-2-(6-methyl-7-oxo-6,7-dihydro-1H-pyrrolo[2,3-c]pyridin-4-yl)phenoxy}-3-fluorobenzonitrile]	–	–	6.6 nM	15.1 nM
CCNC(=O)c1cc2c(-c3cc(N=S(C)(C)=O)ccc3Oc3c(C)cc(F)cc3C)cn(C)c(=O)c2[nH]1 [Example 10, 4-{5-{[dimethyl(oxo)-λ^6-sulfanylidene]amino}-2-(4-fluoro-2,6-dimethylphenoxy)phenyl}-N-ethyl-6-methyl-7-oxo-6,7-dihydro-1H-pyrrolo[2,3-c]pyridine-2-carboxamide]	96.3 nM	0.53 nM	66.3 nM	240 nM
Cc1ncccc1Oc1ccc(N=S(C)(C)=O)cc1-c1cn(C)c(=O)c2[nH]ccc12 [Example 9, 4-{5-{[dimethyl(oxo)-λ^6-sulfanylidene]amino}-2-[(2-methyl-pyridin-3-yl)oxy]phenyl}-6-methyl-1,6-dihydro-7H-pyrrolo[2,3-c]pyridin-7-one]	3 nM	0.75 nM	–	–
CCNC(=O)c1cc2c(-c3cc(N=S(C)(C)=O)cnc3Oc3c(C)cc(F)cc3C)cn(C)c(=O)c2[nH]1 [Example 16, 4-{5-{[dimethyl(oxo)-λ^6-sulfanylidene]amino}-2-(4-fluoro-2,6-dimethylphenoxy)pyridin-3-yl}-N-ethyl-6-methyl-7-oxo-6,7-dihydro-1H-pyrrolo[2,3-c]pyridine-2-carboxamide]	86.4 nM	0.4 nM	20.7 nM	120 nM
CCNC(=O)c1cc2c(-c3cc(N=S(C)(C)=O)ccc3Oc3c(C)cccc3Cl)cn(C)c(=O)c2[nH]1 [Example 7, 4-{2-(2-chloro-6-methylphenoxy)-5-{[dimethyl(oxo)-λ^6-sulfanylidene]amino}phenyl}-N-ethyl-6-methyl-7-oxo-6,7-dihydro-1H-pyrrolo[2,3-c]pyridine-2-carboxamide]	24.3 nM	0.34 nM	2.3 nM	152 nM
